# Results reported in patent publication US9969970B2, “DNA-cell conjugates” (The Regents of the University of California, priority 2009, dated 2018).
# {Phos} = phosphine group for Staudinger ligation to cell-surface azides
# Columns and labels:
# Jurkat cells [1] = assay: Quantification of DNA attached to the cell surface; type: cell-based; conditions: Ac4ManNAz-fed cells, Staudinger ligation
# [2] = 20 bp DNA duplex; ConA-mannose; antibody-antigen; cited from earlier work
# Jurkat cells [3] = assay: Cell capture, morphology and annexin V/PI viability of cells immobilized on biomolecule-coated slides; type: cell-based
# Protocol: (§1) FIG. 17. Comparison of biomolecule-based adhesion methods. a) Bulk cell growth rates were first determined in the presence of the adhesion molecules. A suspension of Jurkat cells was combined with ConA or anti-CD3 IgG, and a solution of DNA-coated cells was combined with the complementary DNA strands. At various time points the total number of cells was counted. The control sample was grown in the absence of any adhesion molecules. b) To evaluate cell capture efficiency, solutions of 20 μM FITC-labeled ssDNA, 20 μM FITC-labeled ConA, and 6 μM FITC-labeled anti-CD3 IgG were applied to aldehyde-coated glass slides, and the biomolecules were attached by reductive amination. Solutions containing 1×10^7 Jurkat cell mL^−1 were then introduced onto the resulting slides. […] The cells were evaluated within 1 h by fluorescence microscopy. * ConA and antibody immobilized cells that were partially stained by annexin were counted as cells undergoing apoptosis. […]
# The extent of apoptosis of surface bound cells was determined by annexin V/propidium iodide staining (BD Biosciences). […] The cells were imaged by fluorescence microscopy and the number of non-viable cells counted after one hour. […]
# Jurkat cells [4] = assay: Bulk cell growth and morphology in the presence of adhesion molecules; type: cell-based; conditions: adhesion molecule in suspension; DNA-coated cells with complementary sequence
# Protocol: as §1, with “slides. The samples were incubated for 10 min at room temperature and then washed with two portions of phosphate-buffered saline (PBS) before evaluation. c) To evaluate cell viability, cells were immobilized on DNA, ConA, and anti-CD3 IgG coated aldehyde slides.” for “slides.”
# The effects of the adhesion molecules on the viability of the cells were assessed using two different methods. […]
# Jurkat cells [5] = assay: AFM measurement of de-adhesion force, cell-cantilever; conditions: cantilever attachment method
# Protocol: FIG. 18. AFM measurement of de-adhesion force. A) Six sample traces for a single cell are shown in shades of gray, with the average trace shown in black. At zero distance, the cell is in full contact with the cantilever, which is applying a positive force. As distance increases, the cantilever is pulled away from the glass slide surface, causgin the cell-cantilever linkage to rupture and result in the zero-force, no-contact region. The force of d-adhesion was calculated as the difference between the curve minimum and the horizontal no=contact region. B) Adhesion forces were measured under different retraction rates (15.7 and 8.2 μm/s) and contact forces (400 and 200 pN) for the DNA, ConA, and antibody systems. Data were obtained by measuring size de-adhesion events on more than four different cells. Error bards represent one standard deviation.
# Our assay to determine the strength of cantilever attachment was designed such that cell-cantilever adhesions were fewer in number, and therefore weaker overall, than DNA-based adhesions between a cell and the complementarily functionalized glass slide. […] The force of de-adhesion was measured for each attachment method using two different retraction rates and two different contact forces (FIG. 18a). The measured force of de-adhesion increased with contact force and retraction rate across all attachment methods, as predicted by the Bell model. […]
# Jurkat cells [6] = assay: Bulk cell acidification control with rotenone; type: cell-based; conditions: 1 μM rotenone, low-buffered media, ~10^6 cells/mL, 37° C.
# Protocol: (§2) Incubation with rotenone would be expected to interfere with the mitochondrial electron transport chain, causing cells to shift to lactic acid fermentation to complete the glycolytic cycle. The resulting excretion of lactic acid should then increase the rate of acidification in the cellular environment. In the experiment, captured cells were first incubated under normal conditions to establish a baseline rate of acidification (˜8.8 milli-pH/min) under aerobic metabolism.
# Jurkat cells [7] = assay: Single cell acidification on the bifunctional microelectrode array, rotenone stimulation; type: cell-based
# Protocol: Metabolic monitoring was accomplished as follows: Cells were suspended at a concentration of 10^6/ml, and the suspension was flowed into the microfluidic device. Cell suspensions were flowed into the channel using 1 mL syringes with Teflon tubing. Where Jurkat and primary T cells were monitored simultaneously they were labeled with CellTracker Green and Red dyes, respectively, as previously described and mixed in an equal ratio. Following a 5 min incubation to allow DNA-based cell capture, the unbound cells were rinsed away (5 ul/min for 3 min) with the low-buffered media. After rinsing, the pH response was monitored electrochemically for 10 min. After this recording, cells were released from the electrodes by heating the device to 55° C. and applying a strong rinse (200 uL/min) with the low-buffered media. Once rinsed and allowed to return to 37° C., the device could be reloaded with cells. This allowed for multiple measurements to be taken with a single cell preparation.
# Voltage measurements were recorded between the iridium oxide electrode and a distant FLEXREF Ag/AgCl reference electrode from World Precision Instruments. An identical iridium oxide electrode outside the cell area was used to compensate for any sensor drift. The sensor electrodes were connected to a National Instruments PCI-6031E data acquisition card with 16 bit analog to digital conversion. The digitized signals were monitored using a custom Labview VI, sampling in multiplex at 3 hz. Voltage signals were processed with a 1% Loess filter using Peak Fit software to reduce noise.
# as §2
compound,measurement,setting,value
"Phosphine-modified ssDNA: phosphine-modified ssDNA (5′-phos-GTAACGATCCAGCTGTCACT-3′) ligated to cell-surface azides by Staudinger ligation (DNA GTAACGATCCAGCTGTCACT; DNA, 5' {Phos}, backbone not given here)",ssDNA molecules per cell,Jurkat cells [1],"≈ 270,000"
concanavalin A [ConA],force of one individual linkage,[2],47 pN
same,"apoptotic and necrotic cells, annexin V and PI staining",Jurkat cells [3]; 24 and 48 h after immobilization,significantly higher numbers of apoptotic cells
same,morphology of immobilized cells,Jurkat cells [3]; after 48 h on coated slides,significant changes
same,cell growth over a three-day period,Jurkat cells [4],aggregated and were no longer alive after 12 h
same,zero-force attachment events in de-adhesion measurements,Jurkat cells [5],12%
C=C(C)[C@H]1Cc2c(ccc3c2O[C@@H]2COc4cc(OC)c(OC)cc4[C@@H]2C3=O)O1 [rotenone],acidification over 60 min compared to identical untreated cells,Jurkat cells [6],more than twice
same,increase in the acidification rate,Jurkat cells [7]; 10 μM rotenone versus baseline,three-fold
same,time to increase in acidification rate,Jurkat cells [7]; after addition of 10 μM rotenone,≤ 1 min
same,acidification rate,"Jurkat cells [7]; single Jurkat cells after 10 μM rotenone added to channel, baseline ~8.8 milli-pH/min",~27.7 milli-pH/min
